Literature values as cited in patent US20120040895A1, “PEPTIDE AVAILABILITY” (priority 2008, published 2012).

- Further increase of AUC when consumed with the meal (yoghurt drink consumed with breakfast, versus fasted state): 30%
- Increase of plasma IPP level (area under the concentration vs. time curve) compared to a control drink (yoghurt drink drunk in overnight fasted state 30 min prior to breakfast): more than two-fold
Structure (SMILES): CC[C@H](C)[C@H](N)C(=O)N1CCC[C@H]1C(=O)N1CCC[C@H]1C(=O)O [IPP, Isoleucine-Proline-Proline]
